{
  "source": "paper PMC10943827",
  "about": "“Engineering Saccharomyces cerevisiae for targeted hydrolysis and fermentation of glucuronoxylan through CRISPR/Cas9 genome editing” (Microbial Cell Factories, 2024)",
  "target": "T1, XylA (Aspergillus oryzae, UniProt Q2UR38)",
  "T1 construct": "gene xlnD; codon-optimized gene, N-terminal S. cerevisiae SED1 secretory signal peptide, expressed from X2 locus of S. cerevisiae CEN.PK XXX; secretome, intact cells and lysate assayed",
  "T1 sequence (Q2UR38 21-798)": "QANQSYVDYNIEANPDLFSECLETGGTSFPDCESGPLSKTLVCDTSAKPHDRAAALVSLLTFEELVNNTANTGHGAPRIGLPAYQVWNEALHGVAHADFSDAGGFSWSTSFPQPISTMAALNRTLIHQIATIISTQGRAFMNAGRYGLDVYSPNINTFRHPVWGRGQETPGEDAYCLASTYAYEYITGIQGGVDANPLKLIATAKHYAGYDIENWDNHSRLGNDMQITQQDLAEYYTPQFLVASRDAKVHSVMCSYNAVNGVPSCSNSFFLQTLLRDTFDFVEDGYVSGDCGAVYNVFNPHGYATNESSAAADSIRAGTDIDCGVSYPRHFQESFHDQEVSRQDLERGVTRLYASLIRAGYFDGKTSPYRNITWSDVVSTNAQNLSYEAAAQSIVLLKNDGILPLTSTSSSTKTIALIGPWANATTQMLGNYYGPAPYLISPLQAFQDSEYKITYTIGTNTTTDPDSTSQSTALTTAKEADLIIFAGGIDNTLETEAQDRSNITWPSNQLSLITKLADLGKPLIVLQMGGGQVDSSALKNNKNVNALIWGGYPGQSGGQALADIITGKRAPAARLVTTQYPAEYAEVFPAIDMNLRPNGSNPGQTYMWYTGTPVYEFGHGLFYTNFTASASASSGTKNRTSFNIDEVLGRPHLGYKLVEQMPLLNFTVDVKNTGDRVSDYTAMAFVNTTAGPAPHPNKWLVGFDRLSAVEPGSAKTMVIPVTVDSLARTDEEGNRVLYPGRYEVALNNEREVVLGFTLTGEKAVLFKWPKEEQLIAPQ",
  "test": "p-nitrophenol release at […] nm, secretome / cell / intracellular fractions of XylA strain versus parent XXX strain",
  "assay_type": "cell-based",
  "conditions": "5 mM substrate, 20 mM sodium phosphate pH 7, 30 °C, 30 min",
  "data": [
    {"smiles": "O=[N+]([O-])c1ccc(O[C@@H]2OC[C@@H](O)[C@H](O)[C@H]2O)cc1", "note": "[p-nitrophenyl-β-D-xylopyranoside]", "values": [
      {"measurement": "p-nitrophenol release at 405 nm, secretome / cell / intracellular fractions of X", "result": "subcellular β-xylosidase activity quantified using p-nitrophenyl-β-D-xylopyranoside"}
    ]}
  ]
}
